For assay [1], the system named is HT-29 cell derived from human large intestine cancer. Kind of assay: Tumor growth in nude mouse SOI model (HT-29 grafted onto wall of large intestine). In kind it is in vivo. From the text: […] was expressed in a HT-29 cell derived from human large intestine cancer, and which was grafted onto the wall of large intestine of a mouse to produce a metamouse. According to this, the quantity of the size of the tumor could be determined with time with emission intensity. In FIG. 16, the size of tumor in each treatment group was shown with a bar graph. Group 1 is a control group, Groups 2 to 4 are a group in which COM-JP was intraperitoneally administered alone at 3.1, 12.5, and 50 mg/kg weight/day every day for 4 weeks, Group 5 is a group in which CDDP was intraperitoneally administered alone at 2.5 mg/kg/day three times on day 0, day 6, and day 13, Groups 6 to 8 are a group in which Groups 2 to 4 and Group 5 were combined to be administered in combination, and Group 9 is a group in which COM-JP was orally administered at 300 mg/kg/day every day for 4 weeks.

In assay [2] the test system is 44As3-11 cell derived from human scirrhous stomach cancer. Kind of assay: MTT, single agents and combination with COM-JP, 44As3-11 cells. The format is cell-based. As for the experimental part:
(§1) Two kind of cancer cells of a 44As3-11 cell derived from human scirrhous stomach cancer and a Panc-1 cell derived from human pancreatic cancer were cultured in the presence or absence of COM-JP, to which GEM and Pac was added on day 2, and the resultant mixture was continued to be cultured for 2 hours. Subsequently, the medium was replaced with a new medium, and the culture was performed in the presence or absence of COM-JP for 2 days more. Finally, the cells were collected, and the quantity of survival activity of the cells was determined by a MTT method. In each experiment, three cases of the group under the same conditions were measured, and the average value and the standard error, and the p-value of significance test were shown in the diagram.

In assay [3] the test system is Panc-1 cell derived from human pancreatic cancer. Kind of assay: MTT, single agents and combination with COM-JP, Panc-1 cells. The format is cell-based. The procedure: as §1
The test system of assay [4] is mTORC1 / Akt activation. The experiment in a line: Western blot of S6RP, 4EBP1 and Akt phosphorylation, KO99L cells. Particulars: 2.0-24 h; COMPOUND-JP 10.0 μM; MK-2206 5.0 μM; KU0063794 5.0 μM; rapamycin 10.0 nM; L-Asp, Erw 2.5 units/ml; velcade at 24 h. In kind it is cell-based, murine. Background: A western blot detects proteins with antibodies after separation by electrophoresis.

In assay [5] the test system is c-myc. The experiment in a line: Western blot of c-myc levels, KO99L cells. In kind it is cell-based, murine. Particulars: COMPOUND-JP 10.0 μM 2.0-24 h; Velcade 8 nM 24 h; KU0063794 10.0 μM; MK-2206 10.0 μM; rapamycin 100 nM. As for the experimental part: (§2) Cell extracts were prepared using a cell lysis buffer (50 mM HEPES, pH 7.4, 150 mM NaCl, 20 mM EDTA, 100 mM NaF, 10 mM Na3VO4, 0.5% nonyl phenoxypolyethoxylethanol (NP40) supplemented with a cocktail of protease inhibitors. After SDS-PAGE separation and transfer to nitrocellulose immunoblotting was performed using the following antibodies against: Akt (Cell Signaling Technologies, #9272), CHOP (#2895), cleaved caspase 3 (#9664), c-Myc (#9402), eIF2a (#9721), 4EBP1 (#9644), LC3A/B (#12741), PARP (#9542), pJnk (T183/Y185) (#9251), pSer235-236-S6RP (#4856), pSer473-Akt (#9271), pSer65-4EBP1 (#9451) and S6RP (#2217); Bax (Sigma-Aldrich, B8429); PUMA (Abcam, ab54288); Bak (Millipore, 06536); ATF4 (Santa Cruz Biotechnologies, sc200), GADD34 (sc8327), Hsp60 (sc-1722), Hsp90 (sc-13119) and XBP1 (sc-7160); ATF6 (Imgenex, IMG-273).

The test system of assay [6] is CHOP. Kind of assay: Western blot of CHOP protein levels, KO99L cells. The format is cell-based, murine. Particulars: for CHOP induction: FIG. 5B, COMPOUND-JP 5.0 and 10.0 μM, L-Asp 2.5 units/ml, rapamycin 10.0 nM, MK-2206 10.0 μM, KU0063794 10.0 μM; for CHOP expression, time course: FIG. 5A, COMPOUND-JP 10.0 μM, L-Asp, Erw 2.5 units/ml, 2.0-24 h. As for the experimental part: as §2

The subject of assay [7] is KO99L cells. The experiment in a line: Combination studies with COMPOUND-JP, WST-1 viability, Chou-Talalay combination index. The format is cell-based, murine. Particulars: 48 h, suboptimal concentrations, in combination with COMPOUND-JP. (In general: Tetrazolium dyes change colour on reduction, which living cells bring about.)
Procedure: Combinations were analyzed by ANOVA followed by Tukey's Multiple comparison test to determine significance between experimental groups. The synergism between drugs was analyzed using the Chou-Talalay method. […] P-value <0.05 was accepted as statistically significant (*:p<0.05; **:p<0.01; ***:p<0.001). Analyses were performed using the GraphPAd Prism 3.0 software.
The test system of assay [8] is KO99L cells (tPTEN−/− tumor cell line). The experiment in a line: WST-1 cell viability assay on KO99L cells. In kind it is cell-based, murine. Particulars: Mus musculus, KO99L cells, 48 h. As for the experimental part:
Two different assays were employed: i) In a 96-well plate format, cells (4.0±0.1×10^4 per well; 100 μL) were incubated with effectors (48 h, 37° C.; n=4 per experiment) and then WST-1 reagent (10 μL; Roche Diagnostics) added to each well of 96-well plates, incubated, and the formazan production was measured at 490 nm; and ii) cells (2.0±0.1×10^4 per well; 100 μL) were incubated with effectors (48 h, 37° C.; n=4 per experiment) and then bromodeoxyuridine reagent (10 μL/well; Roche Diagnostics) was added to each well and incubated (8 h, 37° C.). The cells were then fixed, denatured and incubated with anti-BrdU-conjugated with peroxidase (POD) antibody (100 μL/well). Colorimetric substrate (TMB: tetramethyl-benzidine; 100 μL/well) was added and BrdU incorporation quantified via optical density measurement (450 nm) which corresponds to DNA synthesis and proliferating cells.

Structures can show the parent of a compound that is named as a salt.

Take `[NH2][Pt]([NH2])([Cl])[Cl]` [CDDP, cisplatin, reference compound]: the “efficacy on tumor growth, single administration” value in assay [1] (COM-JP i.p. 3.1, 12.5, 50 mg/kg/day 4 weeks, CDDP i.p. 2.5 mg/kg/day day 0, 6, 13) was “not recognized”. For the same molecule, the “efficacy of combination with COM-JP on tumor growth” value in assay [1] (Group 8: COM-JP 50 mg/kg/day i.p. plus CDDP 2.5 mg/kg/day) is listed as “synergistic effect”.
As to `CC(=O)O[C@H]1C(=O)[C@@]2(C)[C@H]([C@H](OC(=O)c3ccccc3)[C@]3(O)C[C@H](OC(=O)[C@H](O)[C@@H](NC(=O)c4ccccc4)c4ccccc4)C(C)=C1C3(C)C)[C@]1(OC(C)=O)CO[C@@H]1C[C@@H]2O` [paclitaxel], in assay [2], the “inhibitory effect of combination with COM-JP (15 μM)” value (“inhibitory effect of combination” below) is recorded as “additive effect”; the “proliferation activity, agent used alone for 2 hours” value (shortened to “proliferation activity”) is listed as “decreased in a dose-dependent manner”; the “relative inhibitory effect of single agents” value (“relative inhibitory effect” for short) is on record as “stronger than that of gemstabine”. For the same molecule, in assay [3], the “inhibitory effect of combination” value is “additive effect”; the “proliferation activity” value was “decreased in a dose-dependent manner”; the “relative inhibitory effect” value is on record as “stronger than that of gemstabine”.
In the case of `COc1ccc(-c2ccc3c(N4CCOCC4)nc(N4C[C@@H](C)O[C@@H](C)C4)nc3n2)cc1CO` [KU0063794, rel-5-[2-[(2R,6S)-2,6-dimethyl-4-morpholinyl]-4-(4-morpholinyl)pyrido[2,3-d]pyrimidin-7-yl]-2-methoxybenzenemethanol, reference compound], in assay [4], the 4EBP1 phosphorylation entry is given as “completely block”, the “Akt phosphorylation (serine 473) / activation” value is listed as “completely block” and the “S6RP phosphorylation (mTORC1 activation)” value is given as “completely block”. Besides, the c-myc protein level result in assay [5] was “slightly influenced the two lower bands”. Moreover, in assay [6], the CHOP induction entry is reported as “did not result in CHOP induction”. Further, the “combination effect with COMPOUND-JP on metabolic activity/cell survival (Combination Index)” value in assay [7] is reported as “less efficient”.
In the case of `CC(C)C[C@@H](N)C(=O)O` [D-Leucine, D-leucine, reference compound], the viability at 30000 µM in assay [8] (30.0 mM) amounted to 60%.
With `NC1(c2ccc(-c3nc4ccn5c(=O)[nH]nc5c4cc3-c3ccccc3)cc2)CCC1` [MK-2206, reference compound], in assay [4], the 4EBP1 phosphorylation result is recorded as “completely block”, the “Akt phosphorylation (serine 473) / activation” value is reported as “completely block” and the “S6RP phosphorylation (mTORC1 activation)” value was “completely block”. For the same molecule, the c-myc protein level entry in assay [5] is “dramatic disappearance of all three c-myc isoforms”. Also, the CHOP induction result in assay [6] is recorded as “did not result in CHOP induction”.
As for `COc1cccc2c1C(=O)c1c(O)c3c(c(O)c1C2=O)C[C@@](O)(C(=O)CO)C[C@@H]3O[C@H]1C[C@H](N)[C@H](O)[C@H](C)O1` [doxorubicin, doxorubicin hydrochloride], the “combination effect with COMPOUND-JP on metabolic activity/cell survival (Combination Index)” value in assay [7] is on record as “synergy”.
Molecule `NC1(C(=O)O)CC2CCC1C2` (centres unmarked) [BCH, 2-Aminobicyclo-(2,2,1)-heptane-2-carboxylic acid, reference compound] displayed a viability at 10000 µM in assay [8] (10.0 mM) of 30%.
Regarding `CC(C)C[C@H](NC(=O)[C@H](Cc1ccccc1)NC(=O)c1cnccn1)B(O)O` [velcade, bortezomib, reference compound], in assay [4], the 4EBP1 phosphorylation result is reported as “completely abolished”, the “Akt phosphorylation (serine 473) / activation” value is on record as “completely abolished” and the “S6RP phosphorylation (mTORC1 activation)” value was “completely abolished”. The c-myc protein level entry in assay [5] is recorded as “Analogous observations”. Besides, in assay [6], the CHOP induction result is on record as “strongly induced”.
In the case of `Nc1ccn([C@@H]2O[C@H](CO)[C@@H](O)C2(F)F)c(=O)n1` [gemstabine, gemcitabine], in assay [2], the “inhibitory effect of combination” value is on record as “additive effect” and the “proliferation activity” value was “decreased in a dose-dependent manner”. For the same molecule, in assay [3], the “inhibitory effect of combination” value is “additive effect”; the “proliferation activity” value is given as “decreased in a dose-dependent manner”; the “relative inhibitory effect” value is reported as “extremely small”.

B1: L-Asp: enzyme that can degrade extracellular asparagine and also possesses glutaminase activity (protein, UniProt P00805 23-348, looked up)
L-asparaginase 2: LPNITILATGGTIAGGGDSATKSNYTVGKVGVENLVNAVPQLKDIANVKGEQVVNIGSQDMNDNVWLTLAKKINTDCDKTDGFVITHGTDTMEETAYFLDLTVKCDKPVVMVGAMRPSTSMSADGPFNLYNAVVTAADKASANRGVLVVMNDTVLDGRDVTKTNTTDVATFKSVNYGPLGYIHNGKIDYQRTPARKHTSDTPFDVSKLNELPKVGIVYNYANASDLPAKALVDAGYDGIVSAGVGNGNLYKSVFDTLATAAKTGTAVVRSSRVPTGATTQDAEVDDAKYGFVASGTLNPQKARVLLQLALTQTKDPQQIQQIFNQY
Consider B1, for which, in assay [4], the 4EBP1 phosphorylation entry was “altered 4EBP1 phosphorylation”, the “Akt phosphorylation (serine 473) / activation” value is reported as “did not significantly influence Akt phosphorylation” and the “S6RP phosphorylation (mTORC1 activation)” value was “altered S6RP phosphorylation”. For the same molecule, in assay [6], the “CHOP expression, time course” value is recorded as “lower magnitude compared to COMPOUND-JP”. The “combination effect with COMPOUND-JP on metabolic activity/cell survival (Combination Index)” value in assay [7] was “potentiate”.

B2: Erw: enzyme that can degrade extracellular asparagine, with higher glutaminase activity (protein, UniProt P06608 22-348, looked up)
L-asparaginase: ADKLPNIVILATGGTIAGSAATGTQTTGYKAGALGVDTLINAVPEVKKLANVKGEQFSNMASENMTGDVVLKLSQRVNELLARDDVDGVVITHGTDTVEESAYFLHLTVKSDKPVVFVAAMRPATAISADGPMNLLEAVRVAGDKQSRGRGVMVVLNDRIGSARYITKTNASTLDTFKANEEGYLGVIIGNRIYYQNRIDKLHTTRSVFDVRGLTSLPKVDILYGYQDDPEYLYDAAIQHGVKGIVYAGMGAGSVSVRGIAGMRKAMEKGVVVIRSTRTGNGIVPPDEELPGLVSDSLNPAHARILLMLALTRTSDPKVIQEYFHTY
As to B2, in assay [4], the 4EBP1 phosphorylation entry is “altered 4EBP1 phosphorylation”, the “Akt phosphorylation (serine 473) / activation” value was “did not significantly influence Akt phosphorylation” and the “S6RP phosphorylation (mTORC1 activation)” value is reported as “altered S6RP phosphorylation”. Besides, the “CHOP expression, time course” value in assay [6] is reported as “induced a transient response”.

One may read the viability as a read-out of living cells in per cent, often relative to untreated cells.

For the origin of these results see patent US10172835B2, “Anticancer agent composition” (J-Pharma Co., Ltd., priority 2014, dated 2019).
